According to patent US20260109707A1, “HETEROBIFUNCTIONAL COMPOUNDS AND METHODS OF TREATING DISEASE” (Halda Therapeutics OpCo. Inc., priority 2022, published 2026):
Like-named read-outs stand apart in the source and are kept apart here.

What was measured:
[1] = system: T-Rex 293 cell line SC3 cells having increased expression of androgen receptor protein due to exposure to doxycycline; assay: Cellular growth inhibition assay, T-Rex 293 SC3 cells with doxycycline (CellTiter-Glo, 72 hours); format: cell-based; details: T-Rex 293 SC3 cells with increased androgen receptor expression due to doxycycline (10 ng/mL)
Outline: (§1)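 Doxycycline (10 ng/mL) was either included or omitted to toggle wild-type androgen receptor expression in SC3 cells, a T-Rex 293 clone, grown in stripped-serum, phenol red-free medium. After 72 hours with compound, viable cells were quantified by CellTiter-Glo 2.0.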

[2] = system: T-Rex 293 cell line SC3 cells lacking increased expression of androgen receptor protein; assay: Cellular growth inhibition assay, T-Rex 293 SC3 cells without doxycycline (CellTiter-Glo, 72 hours); format: cell-based; details: T-Rex 293 cell line SC3 cells not exposed to doxycycline (lacking increased androgen receptor expression)
Outline: as §1

VCaP cells = assay: Cellular growth inhibition assay for VCaP cells (CellTiter-Glo, 72 hours); format: cell-based, human
Outline: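 Luminescent viability signal after 72 h of compound exposure gave GI50 values by four-parameter nonlinear regression. Compounds were added in 0.5% DMSO to cells plated 24 h earlier at 5000/well in DMEM containing 10% FBS.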

| GI50 (VCaP cells; Homo sapiens, VCaP, 72 h) | GI50 (VCaP cells) | Structure (SMILES) | GI50 ([1]; 72 h) | GI50 ([2]; 72 h) | GI50 [2] | GI50 [1] |
| --- | --- | --- | --- | --- | --- | --- |
| > 3000 nM |  | Cc1sc2c(c1C)C(c1ccc(N3CCC4(CC3)CCN(c3ccc(C(=O)N[C@H]5CC[C@H](Oc6ccc(C#N)c(Cl)c6)CC5)nn3)CC4)cc1)=NC1(CC1)c1nnc(C)n1-2 [I-490] | < 500 nM | > 3000 nM |  |  |
| > 3000 nM |  | Cc1sc2c(c1C)C(c1ccc(N3CCN(CC4CCN(c5ccc(C(=O)N[C@H]6CC[C@H](Oc7ccc(C#N)c(Cl)c7)CC6)nn5)CC4)CC3)cc1)=NC1(CC1)c1nnc(C)n1-2 [I-491] | < 500 nM | < 500 nM |  |  |
| < 500 nM |  | Cc1sc2c(c1C)C(c1ccc(N3CCC(CC4CCN(c5ccc(C(=O)N[C@H]6CC[C@H](Oc7ccc(C#N)c(Cl)c7)CC6)nn5)CC4)CC3)cc1)=NC1(CC1)c1nnc(C)n1-2 [I-492] | < 500 nM | > 3000 nM |  |  |
|  | > 3000 nM | Cc1sc2c(c1C)C(c1ccc(COC3CCC4(CCCN(c5ccc(C(=O)N[C@H]6CC[C@H](Oc7ccc(C#N)c(Cl)c7)CC6)nn5)C4)C3)cc1)=NC1(CC1)c1nnc(C)n1-2 (stereo partly drawn) [I-493] | < 500 nM |  | 500 to 1500 nM |  |
| < 500 nM |  | Cc1sc2c(c1C)C(c1ccc(C3CCC4(CC3)CCN(c3ccc(C(=O)N[C@H]5CC[C@H](Oc6ccc(C#N)c(Cl)c6)CC5)nn3)C4)cc1)=N[C@@H](C)c1nnc(C)n1-2 (stereo partly drawn) [I-494] |  | < 500 nM |  | < 500 nM |
|  | < 500 nM | Cc1sc2c(c1C)C(c1ccc(C3CCC4(CC3)CCN(c3ccc(C(=O)N[C@H]5CC[C@H](Oc6ccc(C#N)c(Cl)c6)CC5)nn3)C4)cc1)=N[C@@H](C)c1nnc(C)n1-2 (stereo partly drawn) [I-495] |  |  | < 500 nM | > 3000 nM |
|  | < 500 nM | Cc1sc2c(c1C)C(c1ccc(C3CCC4(CCN(c5ccc(C(=O)N[C@H]6CC[C@H](Oc7ccc(C#N)c(Cl)c7)CC6)nn5)CC4)C3)cc1)=N[C@@H](C)c1nnc(C)n1-2 (stereo partly drawn) [I-496] | < 500 nM | > 3000 nM |  |  |
|  | 1500 to 3000 nM | Cc1sc2c(c1C)C(c1ccc(C3CCC4(CCN(c5ccc(C(=O)N[C@H]6CC[C@H](Oc7ccc(C#N)c(Cl)c7)CC6)nn5)CC4)C3)cc1)=N[C@@H](C)c1nnc(C)n1-2 (stereo partly drawn) [I-497] |  |  | > 3000 nM | < 500 nM |
| < 500 nM |  | Cc1sc2c(c1C)C(c1ccc(N3CCN(CC4CCN(c5ccc(C(=O)N[C@H]6CC[C@H](Oc7ccc(C#N)c(Cl)c7)CC6)nn5)CC4)CC3)cc1)=N[C@@H](C)c1nnc(C)n1-2 [I-498] | < 500 nM | > 3000 nM |  |  |
| < 500 nM |  | Cc1sc2c(c1C)C(c1ccc(N3CCC(CN4CCN(c5ccc(C(=O)N[C@H]6CC[C@H](Oc7ccc(C#N)c(Cl)c7)CC6)nn5)CC4)CC3)cc1)=N[C@@H](C)c1nnc(C)n1-2 [I-499] | < 500 nM | > 3000 nM |  |  |
| > 3000 nM |  | Cc1sc2c(c1C)C(c1ccc(N3CCC(CC4CCN(c5ccc(C(=O)N[C@H]6CC[C@H](Oc7ccc(C#N)c(Cl)c7)CC6)nn5)CC4)CC3)cc1)=N[C@@H](C)c1nnc(C)n1-2 [I-500] | < 500 nM | > 3000 nM |  |  |
| < 500 nM |  | Cc1sc2c(c1C)C(c1ccc(N3CCC4(CCCN(c5ccc(C(=O)N[C@H]6CC[C@H](Oc7ccc(C#N)c(Cl)c7)CC6)nn5)C4)CC3)cn1)=NC1(CC1)c1nnc(C)n1-2 [I-501] | < 500 nM | > 3000 nM |  |  |
| > 3000 nM |  | Cc1sc2c(c1C)C(c1ccc(N3CCC4(CC3)CCN(c3ccc(C(=O)N[C@H]5CC[C@H](Oc6ccc(C#N)c(Cl)c6)CC5)nn3)C4)cn1)=NC1(CC1)c1nnc(C)n1-2 [I-502] | < 500 nM | > 3000 nM |  |  |
|  | 1500 to 3000 nM | Cc1sc2c(c1C)C(c1ccc(N3CC(C4CCN(c5ccc(C(=O)N[C@H]6CC[C@H](Oc7ccc(C#N)c(Cl)c7)CC6)nn5)CC4)C3)nc1)=NC1(CC1)c1nnc(C)n1-2 [I-503] |  |  | > 3000 nM | < 500 nM |
| < 500 nM |  | Cc1sc2c(c1C)C(c1ccc(OC3CC4(C3)CC3(CCN(c5ccc(C(=O)N[C@H]6CC[C@H](Oc7ccc(C#N)c(Cl)c7)CC6)nn5)CC3)C4)nc1)=NC1(CC1)c1nnc(C)n1-2 [I-504] | < 500 nM | 500 to 1500 nM |  |  |
| < 500 nM |  | CC1=NN=C2C1c1sc(C)c(C)c1C(c1ccc(N3C[C@@H]4CN(c5ccc(C(=O)N[C@H]6CC[C@H](Oc7ccc(C#N)c(Cl)c7)CC6)nn5)C[C@@H]4C3)cc1)=NC21CC1 (stereo partly drawn) [I-505] | < 500 nM | > 3000 nM |  |  |
|  | 1500 to 3000 nM | Cc1sc2c(c1C)C(c1ccc(OC3CCC4(C3)CN(c3ccc(C(=O)N[C@H]5CC[C@H](Oc6ccc(C#N)c(Cl)c6)CC5)nn3)CCO4)cc1)=NC1(CC1)c1nnc(C)n1-2 (stereo partly drawn) [I-506] | < 500 nM | > 3000 nM |  |  |
|  | > 3000 nM | Cc1sc2c(c1C)C(c1ccc(OC3CCC4(C3)CN(c3ccc(C(=O)N[C@H]5CC[C@H](Oc6ccc(C#N)c(Cl)c6)CC5)nn3)CCO4)cc1)=NC1(CC1)c1nnc(C)n1-2 (stereo partly drawn) [I-507] |  |  | > 3000 nM | < 500 nM |
|  | < 500 nM | Cc1sc2c(c1C)C(c1ccc(OC3CCC4(C3)CN(c3ccc(C(=O)N[C@H]5CC[C@H](Oc6ccc(C#N)c(Cl)c6)CC5)nn3)CCO4)cc1)=NC1(CC1)c1nnc(C)n1-2 (stereo partly drawn) [I-508] |  |  | > 3000 nM | < 500 nM |
| > 3000 nM |  | Cc1sc2c(c1C)C(c1ccc(COC3CCC4(CCCN(c5ccc(C(=O)N[C@H]6CC[C@H](Oc7ccc(C#N)c(Cl)c7)CC6)nn5)C4)C3)cc1)=NC1(CC1)c1nnc(C)n1-2 (stereo partly drawn) [I-509] |  |  | > 3000 nM | < 500 nM |
| > 3000 nM |  | CC[C@@H]1N=C(c2ccc(N3CCC4(CCCN(c5ccc(C(=O)N[C@H]6CC[C@H](Oc7ccc(C#N)c(Cl)c7)CC6)nn5)C4)CC3)cc2)c2c(sc(C)c2C)-n2c(C)nnc21 [I-510] | < 500 nM | < 500 nM |  |  |
| < 500 nM |  | Cc1sc2c(c1C)C(c1ccc(N3C[C@@H]4CN(c5ccc(C(=O)N[C@H]6CC[C@H](Oc7ccc(C#N)c(Cl)c7)CC6)nn5)C[C@@H]4C3)cc1)=N[C@@H](C)c1nnc(C)n1-2 [I-511] | < 500 nM | < 500 nM |  |  |
|  | 500 to 1500 nM | Cc1sc2c(c1C)C(c1ccc(COC3CCC4(CCCN(c5ccc(C(=O)N[C@H]6CC[C@H](Oc7ccc(C#N)c(Cl)c7)CC6)nn5)C4)C3)cc1)=N[C@@H](C)c1nnc(C)n1-2 (stereo partly drawn) [I-513] |  | < 500 nM |  | < 500 nM |
|  | 1500 to 3000 nM | Cc1sc2c(c1C)C(c1ccc(COC3CCC4(CCCN(c5ccc(C(=O)N[C@H]6CC[C@H](Oc7ccc(C#N)c(Cl)c7)CC6)nn5)C4)C3)cc1)=N[C@@H](C)c1nnc(C)n1-2 (stereo partly drawn) [I-514] | < 500 nM |  | < 500 nM |  |
| < 500 nM |  | Cc1sc2c(c1C)C(c1ccc(N3CC4(CCC(Cc5ccc(C(=O)N[C@H]6CC[C@H](Oc7ccc(C#N)c(Cl)c7)CC6)nn5)CC4)C3)cc1)=N[C@@H](Cc1ncco1)c1nnc(C)n1-2 [I-515] | < 500 nM | > 3000 nM |  |  |
| > 3000 nM |  | C#Cc1ccc(O[C@H]2CC[C@H](NC(=O)c3ccc(N4CCC(C5CN(c6ccc(C7=NC8(CC8)c8nnc(C)n8-c8sc(C)c(C)c87)nc6)C5)CC4)nn3)CC2)cc1Cl [I-516] | < 500 nM | > 3000 nM |  |  |
|  | > 3000 nM | Cc1sc2c(c1C)C(c1ccc(C3CCC4(CC3)CCN(c3ccc(C(=O)N[C@H]5CC[C@H](Oc6ccc(C#N)c(Cl)c6)CC5)nn3)C4)cc1)=NC1(CC1)c1nnc(C)n1-2 (stereo partly drawn) [I-517] | < 500 nM | > 3000 nM |  |  |
